In PubChem BioAssay AID686982:

Legend:
[1] = tested on: P. berghei liver stage in HepG2, luciferase, 48 h; assay: Plasmodium hepatic-stage parasite load reduction – cell-based, HepG2, luciferase, host viability, known kinase inhibitors, confirmation (AID 686982); conditions: at 10 µM; stronger effect = lower value
[2] = as above; conditions: P. berghei liver stage in HepG2, luciferase, 48 h; measured here: HepG2 viability, % of control; at 10 µM; stronger effect = lower value

What does the source list for `Fc1ccc(-c2c(-c3ccncc3)[nH]c3cccnc23)cc1`?
parasite load, % of control [1]: 1.19%; viability [2]: 163%

Which results are given for `Cc1ccc2c(-c3ccnc(Nc4ccccc4)n3)c(-c3ccc(F)cc3)nn2n1`?
parasite load, % of control [1]: 1.15%; viability [2]: 206%

Which results are given for `COc1cc[nH]c1C=C1C(=O)Nc2ccc(F)c(C#CC3(O)CCOCC3)c21`?
parasite load, % of control [1]: 1.05%; viability [2]: 111%
